Data as given in publication PMC4257560, “Synthesis and Functional Characterization of Substituted Isoquinolinones as MT2-Selective Melatoninergic Ligands” (PLoS ONE, 2014).
“And” between values parts separate entries of the source, which are not always exact repeats. Identical values can stand only once. “Also recorded” adds a separate entry of the source. Like-named read-outs stand apart in the source and are kept apart here.

Tests used:
MT1 [1] = target: T1, MT1 (Homo sapiens, UniProt P48039); details: for MT1 pIC50±SEM: 4°C 60 min, mean ± SEM of 3–5 trials, NSB = no specific binding for up to 30 µM
T1 sequence (P48039 whole entry): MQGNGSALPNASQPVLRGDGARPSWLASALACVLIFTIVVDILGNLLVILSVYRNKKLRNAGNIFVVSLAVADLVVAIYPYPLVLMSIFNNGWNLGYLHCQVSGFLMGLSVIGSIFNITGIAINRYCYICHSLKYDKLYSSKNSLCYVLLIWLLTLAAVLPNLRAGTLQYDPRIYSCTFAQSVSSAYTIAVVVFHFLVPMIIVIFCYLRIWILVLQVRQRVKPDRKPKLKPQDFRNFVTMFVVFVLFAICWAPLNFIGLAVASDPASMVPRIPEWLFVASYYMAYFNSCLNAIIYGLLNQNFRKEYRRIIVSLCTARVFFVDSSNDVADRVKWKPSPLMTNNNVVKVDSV
Description: (§5) Competitive receptor binding characteristics of melatonin and the 15 tested compounds towards human MT1 and MT2 stably expressed in Chinese hamster ovary (CHO) cells were determined using intact cell preparation pre-incubated with 1 nM [^3H]melatonin.
(§6) Individual melatonin receptor subtype (either MT1 or MT2) was stably co-expressed with a G protein chimera 16z25 in Chinese hamster ovary (CHO) cells, hereafter denoted as CHO-hMT1 and CHO-hMT2, respectively. […] Single cell-derived colonies of the stable lines with sufficiently high receptor density and robust responses in the fluorometric assay (as described below) were isolated from the pool of transfected cell. Usage of these clonal lines was limited to 15 passages to prevent degradation of signal detection.
(§7) Competitive binding assays were performed as described [26]. Cells were suspended in binding buffer (50 mM Tris, 2 mM MgCl2, 1 mM EGTA, pH 7.4) in the density of 1.5×10^5 cell/ml. 1 nM [^3H]melatonin and increasing concentrations of a tested compound was included. Cells were incubated at 4°C for 60 min with intermittent agitation and the reaction was stopped by rapid filtration through GF/C filters pre-soaked in 10 mM Tris, pH 7.4 and washed with 1 ml of prechilled binding buffer. Retained radioactivity was measured with Wallac 1450 Microbeta Jet scintillation counter. Competition curves were drawn as one-site competition nonlinear regression model using GraphPad Prism 3.03 to the data which were means ± SEM of 3–4 independent experiments performed in duplicates. In every assay, melatonin was included as standard reference with highly reproducible Ki values, which were calculated using the Cheng-Prusoff equation.

MT2 [2] = target: T2, MT2 (Homo sapiens, UniProt P49286); experiment: biochemical; details: for Ki: MT2 Ki, calculated from mean pIC50 (Cheng-Prusoff), 1 nM [3H]melatonin, intact CHO cells; for Emax: read-out: MT2 %Resp±SEM (percentage of melatonin-mediated displacement of radioligand binding)
T2 sequence (P49286 1-362): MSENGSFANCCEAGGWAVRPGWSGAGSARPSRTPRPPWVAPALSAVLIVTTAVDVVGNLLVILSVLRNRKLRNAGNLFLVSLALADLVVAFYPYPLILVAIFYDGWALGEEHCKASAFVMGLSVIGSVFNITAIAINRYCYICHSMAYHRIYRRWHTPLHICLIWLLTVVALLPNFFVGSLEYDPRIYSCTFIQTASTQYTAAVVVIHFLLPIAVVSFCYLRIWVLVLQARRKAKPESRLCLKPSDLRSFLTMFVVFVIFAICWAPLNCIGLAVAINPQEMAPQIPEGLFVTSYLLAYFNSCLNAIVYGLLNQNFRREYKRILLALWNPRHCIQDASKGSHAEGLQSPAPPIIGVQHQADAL
Description: as §5, §6, §7

MT2 [3] = target: T2, MT2; experiment: Intracellular Ca2+ mobilization (FLIPR) in MT2-CHO cells co-expressing 16z25; assay type: cell-based; design: expressed in transfected cells; details: for Emax: percentage of melatonin (MT)-mediated stimulation of Ca2+ signal, read-out: MT2 %Resp ±SEM, Ca2+ signal
Description: (§1) Tested compounds in different concentrations were diluted in assay buffer in 5× of the final desired concentrations in a V-bottomed microplate, and both the cell and compound plates were put into the fluorometric imaging plate reader FLIPR^TETRA (Molecular Devices, Sunnyvale, CA). […] The peak of the time course of fluorescence changes was expressed in relative fluorescence units (RFU). Dose response curves were constructed by non-linear regression using GraphPad Prism 3.

MT2 [4] = target: T2, MT2; details: for displacement of pre-incubated [3H]melatonin at MT2 (in words): competitive binding, intact CHO cells
Description: as §5, §6, §7

MT1 [5] = target: T1, MT1; experiment: Intracellular Ca2+ mobilization (FLIPR) in MT1-CHO cells co-expressing 16z25; assay type: cell-based; design: expressed in transfected cells; details: for Ca2+ mobilization activity at MT1 (in words): MT1-CHO cells, maximal concentration tested 10 µM
Description: as §1

MT1 [6] = target: T1, MT1; experiment: Inhibition of forskolin-stimulated cAMP accumulation in MT1-CHO cells; assay type: cell-based; design: expressed in transfected cells; details: for MT1 IC50, inhibition of cAMP production: MT1-CHO cells, 50 µM forskolin, calculated from mean pIC50, NSR = no significant response for up to 10 µM; for MT1 %Inhmax ±SEM: maximal percentage inhibition of the forskolin-elevated cAMP level, MT1-CHO
Description: (§2) Both MT1 and MT2 are classified as Gi-coupled receptors with their activation leading to inhibition of intracellular cAMP production. The ability of the tested compounds to activate the endogenously expressed Gi-mediated inhibition of cAMP production was therefore examined.
(§3) All the responses were expressed as the percentage of that induced by forskolin alone (as 100%).
(§4) 2×10^5 cells were seeded in each well of 12-well plates and grown for overnight. Each well was labeled with 1 ml of [^3H]adenine (1 µCi/ml) in F-12K medium containing 1% FBS (vol/vol) for overnight. The labeling media were then replaced by 1 ml of 20 mM HEPES-buffered F-12K containing 1 mM isobutylmethylxanthine (IBMX) and the tested compounds at desired concentrations, and incubated at 37°C for 30 min. The reaction was stopped by aspiration and adding 1 ml prechilled 5% trichloroacetic acid (w/v) with 1 mM ATP, and stored at 4°C for 30 min. [^3H]cAMP was extracted from the pool of labeled adenosine nucleotides by sequential ion-exchange chromatography as previously described. The radioactivity of labeled cAMP and total labeled nucleotide fractions separated by chromatography were estimated by scintillation counting. Inhibition curves were constructed by non-linear regression using GraphPad Prism 3.

MT2 [7] = target: T2, MT2; experiment: Inhibition of forskolin-stimulated cAMP accumulation in MT2-CHO cells; assay type: cell-based; design: expressed in transfected cells; details: for IC50: MT2-CHO cells, 50 µM forskolin, calculated from mean pIC50, read-out: MT2 IC50, inhibition of cAMP production; for MT2 %Inhmax ±SEM: maximal percentage inhibition of the forskolin-elevated cAMP level, MT2-CHO
Description: as §2, §3, §4

MT1 [8] = target: T1, MT1; experiment: biochemical; details: for Emax: read-out: MT1 %Resp±SEM (percentage of melatonin-mediated displacement of radioligand binding)
Description: as §5, §6, §7

[9] = 1 nM [3H]melatonin, intact CHO cells
[10] = MT2-CHO cells, FLIPR, calculated from mean pEC50, NSR = no significant response for up to 30 µM, read-out: MT2 EC50, Ca2+ mobilization
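For MT1 %Resp±SEM (percentage of melatonin-mediated displacement of radioligand binding) in this document: competitive radioligand displacement on intact CHO cells stably co-expressing human MT1 together with the G protein chimera 16z25, using rising concentrations of each compound.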
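For MT1 pIC50±SEM in this document: competitive radioligand displacement on intact CHO cells stably co-expressing human MT1 together with the G protein chimera 16z25, using rising concentrations of each compound.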
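For Selectivity, ratio Ki(MT1)/Ki(MT2) in this document: competition binding on intact CHO cells stably co-expressing human MT2 with G protein chimera 16z25, displacing [3H]melatonin at 4°C over 60 min, melatonin run as reference.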
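For displacement of pre-incubated [3H]melatonin at MT2 (in words) in this document: competition binding on intact CHO cells stably co-expressing human MT2 with G protein chimera 16z25, displacing [3H]melatonin at 4°C over 60 min, melatonin run as reference.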
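For selectivity toward MT2 over MT1 in this document: competition binding on intact CHO cells stably co-expressing human MT2 with G protein chimera 16z25, displacing [3H]melatonin at 4°C over 60 min, melatonin run as reference.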

Compound | melting point | MT1 pIC50±SEM (MT1 [1]; [9]) | IC50 (MT2 [2]) | Ki (MT2 [2]) | Emax (MT2 [2]) | EC50 (MT2 [3]; [10]) | Emax (MT2 [3]; MT2) | Ca2+ mobilization activity at MT1 (in words) (MT1 [5]) | MT1 IC50, inhibition of cAMP production (MT1 [6]) | IC50 (MT2 [7]) | MT2 %Inhmax ±SEM (MT2 [7]) | Selectivity, ratio Ki(MT1)/Ki(MT2) (MT2 [4]) | IC50 (MT1 [8]) | Ki (MT1 [8]) | Emax (MT1 [8]) | other results
COc1cc2c(=O)n(C)ccc2cc1OCc1ccccc1 [7a, 6-Benzyloxy-7-methoxy-2-methylisoquinolin-1(2H)-one] | 102 to 104 °C | NSB ^c | 2820 nM | 852 nM | 78 ± 7% | 163 nM | 84 ± 20% |  |  |  |  |  |  |  |  | concentration triggering Ca2+ signals exclusively in MT2-CHO cells (MT2 [3]; from concentration response curves, Figure 4): around 1 µM
COc1cc2c(=O)n(C)ccc2cc1OCc1cc(C)cc(C)c1 [7g, 6-(3,5-Dimethyl-benzyloxy)-7-methoxy-2-methylisoquinolin-1(2H)-one] |  | NSB | 3470 nM | 1050 nM | 86 ± 2% | 110 nM | 83 ± 6% |  |  |  |  |  |  |  |  | 
COc1cccc(COc2cc3c(=O)n(C)ccc3cc2OC)c1 [14b, 6-Methoxy-7-(3-methoxy-benzyloxy)-2-methylisoquinolin-1(2H)-one] |  | NSB | 1000 nM | 302 nM | 92 ± 3% | 48.9 nM | 96 ± 16% | could not produce any activity | NSR | 69.4 nM | 71±6% |  |  |  |  | displacement of pre-incubated [3H]melatonin at MT2 (in words) (MT2 [4]): completely displaced; fold less potent than 7b (EC50, Ca2+ signal, MT2) (MT2 [3]; relative to 7b, MT2-CHO): > 160 fold
COc1cc(COc2cc3c(=O)n(C)ccc3cc2OC)cc(OC)c1 [14c, 7-(3,5-Dimethoxy-benzyloxy)-6-methoxy-2-methylisoquinolin-1(2H)-one] |  | NSB | 18200 nM | 5490 nM | 94 ± 11% | 228 nM | 71 ± 17% | could not produce any activity | NSR | 326 nM | 58±3% |  |  |  |  | Ca2+ mobilization activity at MT2 (in words) (MT2 [3]; MT2-CHO cells, FLIPR): partial efficacy; fold less potent than 7c (Ca2+ signal, MT2) (MT2 [3]; relative to 7c, MT2-CHO): 11 fold
COc1cccc(COc2c(OC)ccc3c(=O)n(C)ccc23)c1 [15b, 6-Methoxy-5-(3-methoxy-benzyloxy)-2-methyl-2H-isoquinolin-1-one] |  |  | 5.5 nM | 1.7 nM and 1.66 nM | 85 ± 8% |  | 89 ± 20% | could not produce any activity; also recorded: totally inactive | NSR | 0.81 nM | 61±4% | 1800 | 13200 nM |  | 71 ± 13% | Ki (MT1 [1]; read-out: MT1 Ki, calculated from mean pIC50 (Cheng-Prusoff), 1 nM [3H]melatonin, intact CHO cells): 2980 nM; EC50 (MT2 [3]; MT2-CHO cells, FLIPR, mean ± SEM of 3–5 trials, read-out: MT2 pEC50 ±SEM, Ca2+ mobilization (converted)): 0.145 nM; inhibition of cAMP levels in MT1-CHO cells (in words) (MT1 [6]; forskolin-stimulated): completely inactive
COc1ccc2[nH]cc(CCNC(C)=O)c2c1 [MT, N-acetyl-5-methoxytryptamine, reference compound] |  |  |  |  |  |  |  |  |  |  |  |  |  |  |  | MT1 %Resp±SEM (percentage of melatonin-mediated displacement of radioligand binding) (MT1 [1]; relative to melatonin (MT)-mediated displacement): 95±2%; MT1 %Resp ±SEM, Ca2+ signal (MT1 [5]): 100±26%; MT1 %Inhmax ±SEM (MT1 [6]): 59±2%; MT1 %Inhmax ±SEM (MT1 [6]; listed as Melatonin): 60–70%
COc1cc2ccn(C)c(=O)c2cc1O [compound 12, 7-Hydroxy-6-methoxy-2-methylisoquinolin-1(2H)-one] |  |  |  |  |  |  |  |  |  |  |  |  |  |  |  | Emax at 10 µM (MT1 [5]; at 10 µM, partial activation, data not shown, read-out: maximal response, Ca2+ mobilization, MT1): 36%; Emax at 10 µM (MT2 [3]; MT2, at 10 µM, partial activation, data not shown, read-out: maximal response, Ca2+ mobilization, MT2): 53%

Further lines, with some results ahead:

melting point | MT1 pIC50±SEM (MT1 [1]; [9]) | IC50 (MT2 [2]) | Ki (MT2 [2]) | Emax (MT2 [2]) | EC50 (MT2 [3]; [10]) | Emax (MT2 [3]; MT2) | Ca2+ mobilization activity at MT1 (in words) (MT1 [5]) | MT1 IC50, inhibition of cAMP production (MT1 [6]) | IC50 (MT2 [7]) | MT2 %Inhmax ±SEM (MT2 [7]) | Selectivity, ratio Ki(MT1)/Ki(MT2) (MT2 [4]) | IC50 (MT1 [8]) | Ki (MT1 [8]) | Emax (MT1 [8]) | Compound | other results
125 to 127 °C |  | 1200 nM | 362 nM | 85 ± 8% | 215 nM | 70 ± 9% |  |  |  |  | 5.72 | 9120 nM | 2070 nM | 84 ± 10% | COc1ccc2c(=O)n(C)ccc2c1OCc1ccccc1 [15a, 5-Benzyloxyl-6-methoxy-2-methylisoquinolin-1(2H)-one] | 
85 to 86 °C |  | 141 nM | 42 nM | 94 ± 13% | 4.08 nM | 85 ± 19% | could not produce any activity | NSR | 40.6 nM | 64±3% | 50.7 | 9330 nM | 2130 nM | 63 ± 4% | COc1cc(COc2c(OC)ccc3c(=O)n(C)ccc23)cc(OC)c1 [15c, 5-(3,5-Dimethoxy-benzyloxy)-6-methoxy-2-methylisoquinolin-1(2H)-one] | selectivity toward MT2 over MT1 (MT2 [4]; binding, Ki ratio): 51 fold; displacement of pre-incubated [3H]melatonin at MT2 (in words) (MT2 [4]): almost complete displacement; fold more potent than 7c (Ca2+ signal, MT2) (MT2 [3]; relative to 7c, MT2-CHO): 5 fold
 |  | 9550 nM | 2890 nM | 74 ± 11% | 128 nM | 40 ± 17% |  |  |  |  | 0.27 | 3390 nM | 770 nM | 34 ± 5% | COc1ccc2c(=O)n(C)ccc2c1OCc1ccc(C)cc1 [15d, 6-Methoxy-2-methyl-5-(4-methyl-benzyloxy)-isoquinolin-1(2H)-one] | 
